Target: T1, GST-tagged ROR gamma ligand binding domain (LBD) (Homo sapiens, UniProt P51449)
T1 construct: purchased Invitrogen
T1 sequence (P51449 269-508 limits assumed): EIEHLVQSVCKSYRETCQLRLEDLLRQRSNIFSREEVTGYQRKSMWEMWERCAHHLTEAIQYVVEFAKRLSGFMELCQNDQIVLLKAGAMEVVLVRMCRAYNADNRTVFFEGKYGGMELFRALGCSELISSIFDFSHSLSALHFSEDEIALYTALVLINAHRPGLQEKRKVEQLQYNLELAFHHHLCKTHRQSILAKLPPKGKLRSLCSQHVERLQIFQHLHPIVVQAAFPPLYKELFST
Test: TR-FRET assay for ROR gamma (LanthaScreen co-activator peptide recruitment)
Assay type: biochemical
Details: for inhibition at 1 µM: compound concentration 1 μM; for inhibition at 1 µM / inhibition at 10 µM: TR-FRET ratio 520/495, percent of control; for inhibition at 10 µM: compound concentration 10 μM; for IC50: from dose response curve, nonlinear regression, read-out: IC50 range
Method in brief: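 Antagonist-mode co-activator recruitment: 10 nM GST-RORγ LBD with compound (4% DMSO final) in 25 mM HEPES pH 7.4, 100 mM NaCl, 5 mM DTT, 0.01% BSA, 1 h at 22° C.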

| Structure (SMILES) | inhibition at 1 µM [%] | inhibition at 10 µM [%] | IC50 [nM] |
| --- | --- | --- | --- |
| CCC(F)(F)c1ccc(CC(=O)Nc2ccc(-c3nccnc3OC(C)c3ccccc3)cc2)cc1 (stereo not shown) [Example 76, 2-(4-(1,1-Difluoropropyl)phenyl)-N-(4-(3-(1-phenylethoxy)pyrazin-2-yl)phenyl)acetamide] | 78.1 | 87.5 | 100 to 500 |
| CCC(F)(F)c1ccc(CC(=O)Nc2ccc(-c3nccnc3OCc3ccc(F)cc3Cl)cc2)cc1 [Example 77, N-(4-(3-((2-Chloro-4-fluorobenzyl)oxy)pyrazin-2-yl)phenyl)-2-(4-(1,1-difluoropropyl)phenyl)acetamide] | 80.5 | 73.7 | < 50 |
| CC(O)C(F)(F)c1ccc(CC(=O)Nc2ccc(-c3nccnc3OCc3ccccc3)cc2)cc1 (stereo not shown) [Example 78, N-(4-(3-(Benzyloxy)pyrazin-2-yl)phenyl)-2-(4-(1,1-difluoro-2-hydroxypropyl)phenyl)acetamide] | 89.6 | 93.9 | < 50 |
| CCC(F)(F)c1ccc(CC(=O)Nc2ccc(-c3nccnc3O[C@H](C)c3ccccc3)cc2)cc1 [Example 79, (R)-2-(4-(1,1-Difluoropropyl)phenyl)-N-(4-(3-(1-phenylethoxy)pyrazin-2-yl)phenyl)acetamide] | 69.5 | 85.8 | 100 to 500 |
| CCC(F)(F)c1ccc(CC(=O)Nc2ccc(-c3nccnc3O[C@@H](C)c3ccccc3)cc2)cc1 [Example 80, (S)-2-(4-(1,1-Difluoropropyl)phenyl)-N-(4-(3-(1-phenylethoxy)pyrazin-2-yl)phenyl)acetamide] | 69.5 | 86.3 | 100 to 500 |
| CCC(F)(F)c1ccc(CC(=O)Nc2ccc(-c3nccnc3OC(C)c3ccccc3C3CC3)cc2)cc1 (stereo not shown) [Example 81, N-(4-(3-(1-(2-Cyclopropylphenyl)ethoxy)pyrazin-2-yl)phenyl)-2-(4-(1,1-difluoropropyl)phenyl)acetamide] | 83.2 | 88.3 | 100 to 500 |
| CC(O)C(F)(F)c1ccc(CC(=O)Nc2ccc(-c3nccnc3OC3(c4ccccc4)CC3)cc2)cc1 (stereo not shown) [Example 82, 2-(4-(1,1-Difluoro-2-hydroxypropyl)phenyl)-N-(4-(3-(1-phenylcyclopropoxy)pyrazin-2-yl)phenyl)acetamide] | 37.9 | 80.1 |  |
| CCC(F)(F)c1ccc(CC(=O)Nc2ccc(-c3nccnc3O[C@H](C)c3ccccc3Cl)cc2)cc1 [Example 83, (R)-N-(4-(3-(1-(2-Chlorophenyl)ethoxy)pyrazin-2-yl)phenyl)-2-(4-(1,1-difluoropropyl)phenyl)acetamide] | 79.7 | 78.2 | 50 to 100 |
| CC(O)C(F)(F)c1ccc(CC(=O)Nc2ccc(-c3nccnc3O[C@H](C)c3ccccc3Cl)cc2)cc1 (stereo partly drawn) [Example 84, N-(4-(3-((R)-1-(2-Chlorophenyl)ethoxy)pyrazin-2-yl)phenyl)-2-(4-(1,1-difluoro-2-hydroxypropyl)phenyl)acetamide] | 83.8 | 81.9 | 50 to 100 |
| CCC(F)(F)c1ccc(CC(=O)Nc2ccc(-c3nccnc3O[C@@H](C)c3ccccc3Cl)cc2)cc1 [Example 85, (S)-N-(4-(3-(1-(2-Chlorophenyl)ethoxy)pyrazin-2-yl)phenyl)-2-(4-(1,1-difluoropropyl)phenyl)acetamide] | 74.8 | 79.6 | 100 to 500 |
| CC(O)C(F)(F)c1ccc(CC(=O)Nc2ccc(-c3nccnc3O[C@@H](C)c3ccccc3Cl)cc2)cc1 (stereo partly drawn) [Example 86, N-(4-(3-((S)-1-(2-Chlorophenyl)ethoxy)pyrazin-2-yl)phenyl)-2-(4-(1,1-difluoro-2-hydroxypropyl)phenyl)acetamide] | 84.5 | 86 | 50 to 100 |
| CCC(F)(F)c1ccc(CC(=O)Nc2ccc(-c3nccnc3Oc3ccccc3Cl)cc2)cc1 [Example 87, N-(4-(3-(2-Chlorophenoxy)pyrazin-yl)phenyl)-2-(4-(1,1-difluoropropyl)phenyl)acetamide] | 16.3 | 32.4 |  |
| Cc1ccc([C@@H](C)Oc2nccnc2-c2ccc(NC(=O)Cc3ccc(C(F)(F)C(C)O)cc3)cc2)c(Cl)c1 (stereo partly drawn) [Example 88, N-(4-(3-((R)-1-(2-Chloro-4-methylphenyl)ethoxy)pyrazin-2-yl)phenyl)-2-(4-(1,1-difluoro-2-hydroxypropyl)phenyl)acetamide] | 87.4 | 85.5 | < 50 |
| CCC(F)(F)c1ccc(CC(=O)Nc2ccc(-c3nccnc3OCc3c(C)noc3C)cc2)cc1 [Example 89, 2-(4-(1,1-Difluoropropyl)phenyl)-N-(4-(3-((3,5-dimethylisoxazol-4-yl)methoxy)pyrazin-2-yl)phenyl)acetamide] | 58.8 | 74.6 |  |
| Cc1noc(C)c1CCOc1nccnc1-c1ccc(NC(=O)Cc2ccc(C(F)(F)C(C)O)cc2)cc1 (stereo not shown) [Example 90, 2-(4-(1,1-Difluoro-2-hydroxypropyl)phenyl)-N-(4-(3-(2-(3,5-dimethylisoxazol-4-yl)ethoxy)pyrazin-2-yl)phenyl)acetamide] | 90.7 | 93.9 | < 50 |
| CC(O)C(F)(F)c1ccc(CC(=O)Nc2ccc(-c3nccnc3OCc3ccccc3Cl)cc2)cc1 (stereo not shown) [Example 91, N-(4-(3-((2-Chlorobenzyl)oxy)pyrazin-2-yl)phrnyl)-2-(4-(1,1-difluoro-2-hydroxypropyl)phenyl)acetamide] | 79.3 | 82.6 | < 50 |
| Cc1ncsc1CCOc1nccnc1-c1ccc(NC(=O)Cc2ccc(C(F)(F)C(C)O)cc2)cc1 (stereo not shown) [Example 92, 2-(4-(1,1-Difluoro-2-hydroxypropyl)phenyl)-N-(4-(3-(2-(4-methylthiazol-5-yl)ethoxy)pyrazin-2-yl)phenyl)acetamide] | 83.5 | 88 | 50 to 100 |
| CC(O)C(F)(F)c1ccc(CC(=O)Nc2ccc(-c3nccnc3OCC3CCCCC3)cc2)cc1 (stereo not shown) [Example 93, N-(4-(3-(Cyclohexylmethoxy)pyrazin-2-yl)phenyl)-2-(4-(1,1-difluoro-2-hydroxypropyl)phenyl)acetamide] | 86.6 | 94.1 | 100 to 500 |
| CC(O)C(F)(F)c1ccc(CC(=O)Nc2ccc(-c3nccnc3N3CC(OCc4ccccc4)C3)cc2)cc1 (stereo not shown) [Example 94, N-(4-(3-(3-(Benzyloxy)azetidin-1-yl)pyrazin-2-yl)phenyl)-2-(4-(1,1-difluoro-2-hydroxypropyl)phenyl)acetamide] | 15.8 | 45.6 |  |
| Cc1ccc([C@H](C)Nc2nccnc2-c2ccc(NC(=O)Cc3ccc(C(F)(F)C(C)O)cc3)cc2)c(C)c1 (stereo partly drawn) [Example 95, 2-(4-(1,1-Difluoro-2-hydroxypropyl)phenyl)-N-(4-(3-(((S)-1-(2,4-dimethylphenyl)ethyl)amino)pyrazin-2-yl)phenyl)acetamide] | 93.7 | 95.4 | < 50 |
| CCC(F)(F)c1ccc(CC(=O)Nc2ccc(-c3nccnc3N3CCN(C(=O)C4CC4)CC3)cc2)cc1 [Example 96, N-(4-(3-(4-(Cyclopropanecarbonyl)piperazin-1-yl)pyrazin-2-yl)phenyl)-2-(4-(1,1-difluoropropyl)phenyl)acetamide] | 47.7 | 77.2 |  |
